Measured values published in ChEMBL document CHEMBL4706474, “Tetrahydro-2-naphthyl and 2-Indanyl Triazolopyrimidines Targeting Plasmodium falciparum Dihydroorotate Dehydrogenase Display Potent and Selective Antimalarial Activity” (J Med Chem, 2016).
Values after ≈ are worked out from the molar mass of the structure shown. Active and inactive are the calls of the source. The calls are words filed in the database; no cut-off is given here.

Tests used:
[1] = system: Plasmodium falciparum; assay: Antimalarial activity against atovaquone, chloroquine, cycloguanil and pyrimethamine resistant Plasmodium falciparum TM90C2B; type: functional, organism-based
[2] = target: Cytochrome P450 2C19 (Homo sapiens, UniProt P33261); assay: Inhibition of CYP2C19 in human liver microsomes using isoform-specific probe substrates in presence of NADPH-generating system by LC-MS analysis; type: ADME; settings: read-out: IC50
Cytochrome P450 2C19, sequence (P33261 whole entry, canonical isoform): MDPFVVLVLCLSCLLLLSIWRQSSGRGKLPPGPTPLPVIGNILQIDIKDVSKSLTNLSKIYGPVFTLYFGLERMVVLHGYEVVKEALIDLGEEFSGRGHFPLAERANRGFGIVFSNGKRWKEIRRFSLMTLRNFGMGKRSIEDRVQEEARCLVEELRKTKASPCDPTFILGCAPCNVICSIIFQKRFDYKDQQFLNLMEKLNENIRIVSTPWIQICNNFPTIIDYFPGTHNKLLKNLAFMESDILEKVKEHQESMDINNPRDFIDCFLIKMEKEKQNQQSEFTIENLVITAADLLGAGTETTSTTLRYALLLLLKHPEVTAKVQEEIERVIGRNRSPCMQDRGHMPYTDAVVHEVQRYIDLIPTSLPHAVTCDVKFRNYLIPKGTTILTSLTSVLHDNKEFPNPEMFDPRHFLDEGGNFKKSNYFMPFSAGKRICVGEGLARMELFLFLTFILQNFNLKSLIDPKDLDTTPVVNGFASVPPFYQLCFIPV

[3] = target: Dihydroorotate dehydrogenase (quinone), mitochondrial (Mus musculus, UniProt O35435)
Dihydroorotate dehydrogenase (quinone), mitochondrial (Mus musculus, UniProt O35435), sequence (O35435 whole entry): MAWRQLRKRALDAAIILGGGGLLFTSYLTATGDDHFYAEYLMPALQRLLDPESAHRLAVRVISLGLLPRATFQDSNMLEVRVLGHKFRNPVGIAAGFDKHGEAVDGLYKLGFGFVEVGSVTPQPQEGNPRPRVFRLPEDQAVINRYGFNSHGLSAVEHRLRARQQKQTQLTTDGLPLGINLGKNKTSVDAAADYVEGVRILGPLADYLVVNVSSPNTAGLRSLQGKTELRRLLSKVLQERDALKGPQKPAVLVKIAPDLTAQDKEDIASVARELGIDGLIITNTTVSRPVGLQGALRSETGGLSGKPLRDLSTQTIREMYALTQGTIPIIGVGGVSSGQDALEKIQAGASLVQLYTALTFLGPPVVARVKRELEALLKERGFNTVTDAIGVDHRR

[4] = Inhibition of N-terminal His6-tagged Plasmodium vivax DHODH expressed in Escherichia coli BL21 using L-DHO as substrate and CoQ as co-substrate by DCIP dye based spectrophotometric assay
[5] = system: Plasmodium falciparum; assay: Antimalarial activity against Plasmodium falciparum D6; type: functional, organism-based
[6] = target: Cytochrome P450 2D6 (Homo sapiens, UniProt P10635); assay: Inhibition of CYP2D6 in human liver microsomes using isoform-specific probe substrates in presence of NADPH-generating system by LC-MS analysis; type: ADME
Cytochrome P450 2D6, sequence (P10635 whole entry, canonical isoform): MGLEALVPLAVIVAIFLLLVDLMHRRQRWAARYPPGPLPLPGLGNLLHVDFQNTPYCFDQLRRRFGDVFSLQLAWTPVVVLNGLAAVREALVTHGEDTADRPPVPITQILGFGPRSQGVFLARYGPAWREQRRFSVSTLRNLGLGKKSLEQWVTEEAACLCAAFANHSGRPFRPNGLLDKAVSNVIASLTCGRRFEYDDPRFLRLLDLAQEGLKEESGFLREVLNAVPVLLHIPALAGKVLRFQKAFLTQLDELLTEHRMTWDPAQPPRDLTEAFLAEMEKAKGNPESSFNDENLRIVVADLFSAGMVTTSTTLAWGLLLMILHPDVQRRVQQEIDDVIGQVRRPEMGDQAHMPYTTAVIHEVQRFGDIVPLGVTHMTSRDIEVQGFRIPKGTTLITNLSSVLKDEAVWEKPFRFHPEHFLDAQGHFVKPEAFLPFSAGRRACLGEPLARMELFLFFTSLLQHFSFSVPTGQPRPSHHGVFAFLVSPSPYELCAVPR

[7] = system: Plasmodium falciparum; assay: Antimalarial activity against chloroquine, pyrimethamine and cycloguanil resistant Plasmodium falciparum K1; type: functional, organism-based
[8] = Elimination half-life in Swiss mouse at 20 mg/kg, po administered as single dose via gavage measured over 24 hrs by LC-MS analysis; type: ADME, organism-based; settings: in vivo, read-out: beta t1/2 (converted)
[9] = Intrinsic clearance in rat liver microsomes assessed per mg protein at 1 uM by LC-MS analysis; type: ADME, Microsome; settings: microsomes, 1 µM
[10] = system: Plasmodium falciparum; assay: Antiplasmodial activity against Plasmodium falciparum 3D7 infected in NSG mouse assessed as blood AUC level require to show 90% reduction in parasitemia administered orally on day 3 post-infection QD for 4 days and measured after 24 hrs post dose by LC-MS/MS analysis; type: functional, organism-based; settings: time 4.0 day
[11] = target: T1, Cytochrome P450 1A2 (Homo sapiens, UniProt P05177); assay: Inhibition of CYP1A2 in human liver microsomes using isoform-specific probe substrate in presence of NADPH-generating system by LC-MS analysis; type: ADME
T1 sequence (P05177 whole entry): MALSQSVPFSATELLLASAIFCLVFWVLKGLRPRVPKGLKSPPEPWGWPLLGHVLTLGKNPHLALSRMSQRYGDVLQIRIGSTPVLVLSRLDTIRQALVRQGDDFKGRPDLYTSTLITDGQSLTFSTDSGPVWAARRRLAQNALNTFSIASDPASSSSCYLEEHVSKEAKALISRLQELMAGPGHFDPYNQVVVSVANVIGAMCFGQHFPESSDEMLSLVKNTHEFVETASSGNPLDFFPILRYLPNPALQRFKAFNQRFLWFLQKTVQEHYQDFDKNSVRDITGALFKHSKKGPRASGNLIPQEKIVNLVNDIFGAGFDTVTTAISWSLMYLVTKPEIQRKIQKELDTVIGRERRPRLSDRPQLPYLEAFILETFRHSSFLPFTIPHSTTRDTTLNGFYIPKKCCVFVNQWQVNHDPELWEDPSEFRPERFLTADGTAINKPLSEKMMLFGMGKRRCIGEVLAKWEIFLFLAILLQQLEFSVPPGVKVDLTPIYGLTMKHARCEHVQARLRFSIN

[12] = Protein binding in Swiss mouse plasma at 20 mg/kg, po administered as single dose via gavage measured over 24 hrs by LC-MS analysis; type: ADME, organism-based; settings: read-out: PPB (converted)
[13] = target: Cytochrome P450 2C9 (Homo sapiens, UniProt P11712); assay: Inhibition of CYP2C9 in human liver microsomes using isoform-specific probe substrates in presence of NADPH-generating system by LC-MS analysis; type: ADME
Cytochrome P450 2C9, sequence (P11712 whole entry, canonical isoform): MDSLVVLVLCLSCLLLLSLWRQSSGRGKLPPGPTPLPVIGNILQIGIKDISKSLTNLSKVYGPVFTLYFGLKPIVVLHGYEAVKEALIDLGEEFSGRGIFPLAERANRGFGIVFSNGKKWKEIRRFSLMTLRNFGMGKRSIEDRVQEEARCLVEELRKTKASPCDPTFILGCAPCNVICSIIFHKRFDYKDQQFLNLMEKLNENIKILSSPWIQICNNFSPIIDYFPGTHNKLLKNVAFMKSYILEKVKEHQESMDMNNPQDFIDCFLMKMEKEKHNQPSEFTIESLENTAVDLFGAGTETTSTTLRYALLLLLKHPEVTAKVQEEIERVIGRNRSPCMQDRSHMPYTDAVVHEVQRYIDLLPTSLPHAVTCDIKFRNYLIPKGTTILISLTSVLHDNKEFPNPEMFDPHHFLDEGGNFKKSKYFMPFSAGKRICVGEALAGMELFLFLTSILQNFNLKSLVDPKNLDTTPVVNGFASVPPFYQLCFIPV

[14] = target: T2, Cytochrome P450 2B6 (Homo sapiens, UniProt P20813); assay: Inhibition of CYP2B6 in human liver microsomes using isoform-specific probe substrates in presence of NADPH-generating system by LC-MS analysis; type: ADME
T2 sequence (P20813 whole entry): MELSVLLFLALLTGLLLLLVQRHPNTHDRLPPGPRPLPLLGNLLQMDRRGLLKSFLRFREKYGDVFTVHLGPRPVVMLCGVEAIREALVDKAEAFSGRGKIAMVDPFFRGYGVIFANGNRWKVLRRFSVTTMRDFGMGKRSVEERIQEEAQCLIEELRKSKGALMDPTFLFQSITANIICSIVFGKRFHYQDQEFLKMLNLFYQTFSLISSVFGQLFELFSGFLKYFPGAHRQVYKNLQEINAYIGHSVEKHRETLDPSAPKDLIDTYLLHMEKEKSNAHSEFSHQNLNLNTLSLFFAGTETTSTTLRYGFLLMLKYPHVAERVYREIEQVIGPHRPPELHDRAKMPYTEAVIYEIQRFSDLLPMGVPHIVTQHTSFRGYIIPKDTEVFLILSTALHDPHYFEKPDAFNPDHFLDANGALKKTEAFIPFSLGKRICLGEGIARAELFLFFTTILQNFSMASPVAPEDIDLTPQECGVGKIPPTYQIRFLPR

[15] = Protein binding in human plasma assessed as bound fraction by LC-MS analysis based ultracentrifugation assay; type: ADME, cell-free; settings: read-out: PPB (converted)
[16] = Kinetic solubility of compound in phosphate buffer at pH 6.5 measured after 30 mins by HPLC-UV based analysis; type: physicochemical; settings: phosphate buffer, pH 6.5, read-out: Kinetic_solubility
[17] = AUC (0 to infinity) in Swiss mouse at 20 mg/kg, po administered as single dose via gavage measured over 24 hrs by LC-MS analysis; type: ADME, organism-based; parameters: route oral, dose 20 mg/kg, time >24; settings: in vivo
[18] = Solubility of compound in 0.1 N HCl measured after 5 to 6 hrs by HPLC-UV based analysis; type: physicochemical; settings: buffer; time 5-6 hrs
[19] = target: Cytochrome P450 3A4 (Homo sapiens, UniProt P08684); assay: Inhibition of CYP3A4 in human liver microsomes using isoform-specific probe substrates in presence of NADPH-generating system by LC-MS analysis; type: ADME; settings: read-out: IC50
Cytochrome P450 3A4, sequence (P08684 whole entry, canonical isoform): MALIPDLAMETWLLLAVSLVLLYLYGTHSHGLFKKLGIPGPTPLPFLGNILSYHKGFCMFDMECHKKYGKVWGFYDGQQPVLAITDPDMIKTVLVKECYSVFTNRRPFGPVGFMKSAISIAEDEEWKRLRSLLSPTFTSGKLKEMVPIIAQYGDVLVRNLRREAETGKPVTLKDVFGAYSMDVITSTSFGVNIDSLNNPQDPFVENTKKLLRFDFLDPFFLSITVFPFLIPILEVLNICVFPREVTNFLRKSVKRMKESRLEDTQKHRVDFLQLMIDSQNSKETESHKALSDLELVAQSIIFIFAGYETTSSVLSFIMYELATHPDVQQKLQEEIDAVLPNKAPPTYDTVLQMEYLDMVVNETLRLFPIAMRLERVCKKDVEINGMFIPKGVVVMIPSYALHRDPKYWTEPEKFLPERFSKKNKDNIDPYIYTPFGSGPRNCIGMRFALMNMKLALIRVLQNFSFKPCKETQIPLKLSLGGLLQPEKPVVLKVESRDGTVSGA

[20] = system: Plasmodium falciparum; assay: Antiplasmodial activity against Plasmodium falciparum 3D7 infected in po dosed NSG mouse assessed as reduction in parasitemia administered once daily for 4 consecutive days starting from day 3 post-infection and measured 24 hrs post last dose by flow cytometric analysis; type: functional; settings: 3D7, po, 96 h, time 4 day
[21] = system: Plasmodium falciparum; assay: Antiplasmodial activity against Plasmodium falciparum 3D7 infected in RBC assessed as reduction in parasitemia incubated for 72 hrs by SYBR green dye-based assay; type: functional, organism-based; settings: Plasmodium falciparum, 3D7, Erythrocyte, 72 h
[22] = Solubility of compound in FaSSIF at pH 6.5 measured after 5 to 6 hrs by HPLC-UV based analysis
[23] = Protein binding in rat plasma assessed as bound fraction by LC-MS analysis based ultracentrifugation assay; type: ADME, cell-free; settings: read-out: PPB (converted)
[24] = Intrinsic clearance in mouse liver microsomes at 1 uM by LC-MS analysis; type: ADME, Microsome
[25] = Unbound Cmax in Swiss mouse at 20 mg/kg, po administered as single dose via gavage measured over 24 hrs by LC-MS analysis; type: ADME, organism-based; settings: in vivo
[26] = target: Dihydroorotate dehydrogenase (quinone), mitochondrial (Rattus norvegicus, UniProt Q63707); assay: Inhibition of N-terminal His6-tagged rat DHODH expressed in Escherichia coli BL21 expressed in Escherichia coli BL21 using L-DHO as substrate and CoQ as co-substrate by DCIP dye based spectrophotometric assay
Dihydroorotate dehydrogenase (quinone), mitochondrial (Rattus norvegicus, UniProt Q63707), sequence (Q63707 whole entry): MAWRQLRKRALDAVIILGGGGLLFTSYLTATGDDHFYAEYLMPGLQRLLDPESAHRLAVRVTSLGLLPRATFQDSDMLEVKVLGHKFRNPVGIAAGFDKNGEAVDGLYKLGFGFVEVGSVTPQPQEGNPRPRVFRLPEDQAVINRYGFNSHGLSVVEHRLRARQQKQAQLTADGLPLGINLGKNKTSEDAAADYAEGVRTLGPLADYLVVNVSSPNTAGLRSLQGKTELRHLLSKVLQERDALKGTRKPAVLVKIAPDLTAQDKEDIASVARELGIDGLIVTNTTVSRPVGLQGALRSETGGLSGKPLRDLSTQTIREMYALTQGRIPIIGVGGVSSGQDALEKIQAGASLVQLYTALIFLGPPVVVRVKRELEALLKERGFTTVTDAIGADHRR

Structure (SMILES)	Activity [1]	IC50 [2]	IC50 [3]	IC50 [4]	Activity [5]	IC50 [6]	Activity [7]	half-life [8]	Intrinsic clearance in rat liver microsomes (uL/min/mg protein) [9]	AUCED90 [10]	IC50 [11]	fraction unbound at 24 h [12]	IC50 [13]	IC50 [14]	fraction unbound [15]	solubility kinetic at 0.5 h [16]	AUC [17]	solubility [18]	IC50 [19]	ED90 [20]	also measured
Cc1cc(N[C@H]2CCc3ccc(Cl)cc3C2)n2nc(C(C)(F)F)nc2n1	Active	> 20 µM	> 100 µM	0.01 µM	Active	2.7 µM	Active	2 h	38 µL/min	10.3 µM.hr/day	> 20 µM	0.026	2.1 µM	> 20 µM	0.033	3.1 µg/mL (≈ 8.2 µM)	22.7 µM·h	105 µg/mL (≈ 278 µM)	> 20 µM	19 mg/kg	EC50 [21]: 0.0012 µM; solubility [22]: 12 µg/mL (≈ 31.8 µM); fraction unbound [23]: 0.036; intrinsic clearance [24]: 31 µL/min; fCmax [25]: 0.13 µM; IC50 [26]: > 100 µM
Cc1cc(NC2Cc3cc(F)c(F)cc3C2)n2nc(C(C)(F)F)nc2n1	Active	> 20 µM	> 100 µM	0.37 µM	Active	5.9 µM	Active	2 h	< 7 µL/min	137 µM.hr/day	> 20 µM	0.047	18.5 µM	> 20 µM	0.066	6.3 µg/mL (≈ 17.2 µM)	169 µM·h	180 µg/mL (≈ 493 µM)	> 20 µM	35 mg/kg	EC50 [21]: 0.04 µM; solubility [22]: 15 µg/mL (≈ 41.1 µM); fraction unbound [23]: 0.058; intrinsic clearance [24]: 21 µL/min; fCmax [25]: 1.4 µM; IC50 [26]: > 100 µM
